Legend:
articular chondrocytes = test: miR-122 / miR-451 transfection of articular chondrocytes in presence and absence of IL-1β; format: cell-based, rat; conditions: miR transfection plus IL-1β stimulation
From the text: The following Examples with these microRNAs established their functions in articular chondrocytes in the presence and absence of the inflammatory cytokine IL-1β. Since IL-1β signaling is a major contributor of OA, a well-established model of creating an osteoarthritic phenotype in vitro is to stimulate cell cultures with this cytokine. This study first established that both these microRNAs were elevated in OA in the bilateral ACLT model.
The miR-451 miR (SEQ ID NO:10) was originally chosen as a control miR but it had surprising and very specific functions. […] A series of transfections and inhibition experiments with these microRNAs confirmed that these changes were due to the microRNAs themselves.

[1] = tested on: rat articular chondrocytes (rArCs); test: miR mimic or inhibitor transfection of rArCs with or without TNF-α stimulation; format: cell-based
Description: FIGS. 7A-7F show assessment of miR-122 and miR-451 transfection or inhibition on TNF-α stimulated rat articular chondrocytes. rArCs were transfected at 60% confluence with miR-122, miR-451, miR-122-inhibitor (122-Inh), miR-451 inhibitor (451-Inh), or an empty vehicle (Lipo) for 24 hours followed by 24 hours with or without 10 ng/mL TNF-α stimulation. (FIG. 7A, 7D) Total DNA was measured from the cell monolayer and (FIG. 7B, 7E) MMP-13 and (FIG. 7C, 7F) PGE2 proteins were measured from the conditioned media. Groups not sharing a letter (A, B or C over bar) are statistically significant using an alpha=0.05.
Rat articular chondrocytes (rArCs) were isolated using a previously established protocol (see Scott, supra). Briefly, rArCs were isolated from femoral condyles and tibial plateaus from 100-125 g male Sprague Dawley rats. Cartilage was sterilely sliced from the articular surfaces using a surgical blade and placed in Dulbecco's modification of Eagle's medium with 1 g/L glucose, 50 U/mL penicillin and streptomycin (pen-strep) (DMEM). After removing DMEM, cartilage was incubated with 0.05% trypsin (20 mins, 37° C.), rinsed with DMEM (50 U/mL pen-strep, 20 mins, 37° C.), and then digested with sterile-filtered 0.03% collagenase type II solution (Worthington Biochemical, Lakewood, NJ) in Hank's balanced salt solution (16 hrs, 37° C.). Digestion was quenched with an equal volume of DMEM containing 10% fetal bovine serum (FBS) and 50 U/mL pen-strep, strained through a 40 μm strainer (Greiner Bio-one, North Carolina), spun down at 500×g for 10 mins and plated at a seeding density of 15,000 cells/cm^2. These cells are at passage 0. All experiments used cells at passage 1.
rArCs were plated at a seeding density of 15,000 cells/cm^2 and fed with DMEM supplemented with 10% FBS and 50 U/mL pen-strep. Media were changed 24 hours after plating and then every 48 hours. After treatments described below, conditioned media were collected, centrifuged at 1,000×g for 10 mins to remove cellular debris, aliquoted, and stored at −80° C. until assayed. Cell monolayers were rinsed twice with 1 mL of 1×PBS, lysed in 500 μL of 0.05% Triton X-100, and frozen for later DNA analysis. MMP-13 (ANASpec, Fremont, CA) and PGE2 (R&D Systems) were measured in the conditioned media by a microplate reader at ex/em 490 nm/520 nm, and 450 nm absorbance, respectively, in accordance with the manufacturer's directions. Data were normalized to the DNA content of the cell monolayer. Cell layers were thawed, and mechanically lysed by ultrasonication (40V, 10s/well) (VCX-120; Vibra-cell, Newtown, CT) and DNA was measured using QuantiFluor dsDNE system kit (Promega, Madson, WI) and quantified on a fluorescence plate reader at ex/em 504 nm/531 nm. […]

[2] = tested on: resting zone and growth zone chondrocytes; test: microRNA transfection of costochondral resting zone and growth zone chondrocytes; conditions: preliminary testing
chondrocytes = conditions: in vitro studies (Scott; Tang et al.); cited from earlier work

miR-451: mirVana miRNA mimic rno-miR-451-5p; AAACCGUUACCAUUACUGAGUU (AAACCGUUACCAUUACUGAGUU; listed as RNA, chemistry not given here)
IL-1β-stimulated MMP-13 (articular chondrocytes): exacerbated production in MMP-13 and PGE2
IL-1β-stimulated PGE2 (articular chondrocytes): exacerbated production in MMP-13 and PGE2
growth factor VEGF (articular chondrocytes): decreased the growth factor VEGF
inflammatory mediators, cytokines, chemokines (IL-1α, IL-2, IL-4, IL-6, GM-CSF, MIP-1A; RANTES for miR-122) (articular chondrocytes): increased the inflammatory mediators, cytokines, chemokines
change of total DNA on TNF-α treatment in transfected cells ([1]; 14.5 nM mimic 24 hours, then 10 ng/mL TNF-α 24 hours): did not change total DNA
total DNA after mimic transfection ([1]; 14.5 nM mimic, 24 hours, vs Lipo control): reduced total DNA compared to all groups
proliferation ([2]; transfected costochondral resting zone and growth zone chondrocytes): decrease in total DNA and proliferation
total DNA ([2]; transfected growth plate chondrocytes): decrease in total DNA and proliferation
apoptosis and cell viability in chondrocytes (chondrocytes): does not induce apoptosis or compromise cell viability
